This assay has as its target human GPR40 (Homo sapiens, UniProt O14842). The assay can be described thus: FDSS-based intracellular calcium assay (Human GPR40 in vitro assay). More on the design: 3xFLAG; expressed in transfected cells. As to conditions: intracellular Ca2+ response, cells expressing GPR40; read-out: hGPR40 EC50. The assay is classed as cell-based. The method, then: FDSS-based Intracellular Calcium Assay
Compounds are dissolved in DMSO and diluted to desired concentrations with assay buffer and added to the cells as 3× solution (20 μL per well). Run fluorescence/luminescence reader FDSS (Hamamatsu) to read intracellular Ca^2+ response.
Background: Calcium flux is commonly read through the fluorescence of an indicator in the cells.
Sequence of human GPR40 (O14842 whole entry): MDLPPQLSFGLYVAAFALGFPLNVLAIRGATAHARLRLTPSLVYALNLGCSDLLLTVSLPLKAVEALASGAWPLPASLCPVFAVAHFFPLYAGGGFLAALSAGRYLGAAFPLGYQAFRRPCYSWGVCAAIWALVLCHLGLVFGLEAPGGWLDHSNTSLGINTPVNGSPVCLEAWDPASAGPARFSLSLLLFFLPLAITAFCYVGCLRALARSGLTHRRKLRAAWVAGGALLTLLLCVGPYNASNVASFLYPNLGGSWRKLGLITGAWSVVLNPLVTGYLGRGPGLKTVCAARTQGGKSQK
`C[C@@H]1C(C(F)(F)F)=NN(c2ccc(OC3CCN(S(=O)(=O)C4CCCC4)CC3)cc2)[C@H]1CC(=O)O` [Example B24, 2-((4S,5S)-1-(4-((1-(Cyclopentylsulfonyl)piperidin-4-yl)oxy)phenyl)-4-methyl-3-(trifluoromethyl)-4,5-dihydro-1H-pyrazol-5-yl)acetic acid]: the EC50 (as a rule, the concentration needed to bring the measured effect to its halfway point) is 3.6 µM. Consider `CCOc1ccc(F)c(N2CCC(Cc3ccc(N4N=C(C(F)(F)F)[C@@H](C)[C@@H]4CC(=O)O)cc3)C(C)C2)c1` (single isomer, unassigned) [Example 3 (Isomer 2)], for which the EC50 amounted to 0.471 µM. As to `COc1cc(N2CCC(Oc3ccc(N4N=C(C#N)C(C)C4CC(=O)O)cc3)C(C)C2)c(Cl)cn1` (single isomer, unassigned) [Example B6, Isomer 1, 2-(1-(4-((1-(5-chloro-2-methoxypyridin-4-yl)-3-methylpiperidin-4-yl)oxy)phenyl)-3-cyano-4-methyl-4,5-dihydro-1H-pyrazol-5-yl)acetic acid], the EC50 amounted to 0.303 µM.

Regarding `Cc1nc(C)c(N2CCC(Oc3ccc(N4N=C(C(F)(F)F)[C@@H](C)[C@@H]4CC(=O)O)cc3)CC2)s1` [Example B16, 2-((4S,5S)-1-(4-((1-(2,4-Dimethylthiazol-5-yl)piperidin-4-yl)oxy)phenyl)-4-methyl-3-(trifluoromethyl)-4,5-dihydro-1H-pyrazol-5-yl)acetic acid], the EC50 is 1.1 µM.

For `COc1cccc(N2CCC(Cc3ccc(N4N=C(C(F)(F)F)[C@@H](C)[C@@H]4CC(=O)O)cc3)CC2)c1` [Example B8, 2-((4S,5S)-1-(4-((1-(3-methoxyphenyl)piperidin-4-yl)methyl)phenyl)-4-methyl-3-(trifluoromethyl)-4,5-dihydro-1H-pyrazol-5-yl)acetic acid], the EC50 was 0.761 µM. Consider `C[C@@H]1C(C(F)(F)F)=NN(c2ccc(OCC3CN(S(=O)(=O)C4CCCCC4)C3)cc2)[C@H]1CC(=O)O` [Example B31, 2-((4S,5S)-1-(4-((1-(Cyclohexylsulfonyl)azetidin-3-yl)methoxy)phenyl)-4-methyl-3-(trifluoromethyl)-4,5-dihydro-1H-pyrazol-5-yl)acetic acid], for which the EC50 turned out to be 3.77 µM.

Consider `CCOc1ccc(F)c(N2CCC(Oc3ccc(N4N=C(C#N)C(C)C4CC(=O)O)cc3)CC2)c1` (single isomer, unassigned) [Example B5, Isomer 2, 2-(3-cyano-1-(4-((1-(5-ethoxy-2-fluorophenyl)piperidin-4-yl)oxy)phenyl)-4-methyl-4,5-dihydro-1H-pyrazol-5-yl)acetic acid], for which the EC50 was 4.95 µM. In the case of `CC(C)CS(=O)(=O)N1CCC(Oc2ccc(N3N=C(C(F)(F)F)[C@@H](C)[C@@H]3CC(=O)O)cc2)CC1` [Example B23, 2-((4S,5S)-1-(4-((1-(isobutylsulfonyl)piperidin-4-yl)oxy)phenyl)-4-methyl-3-(trifluoromethyl)-4,5-dihydro-1H-pyrazol-5-yl)acetic acid], the EC50 was found to be 2 µM. On to `C[C@@H]1C(C(F)(F)F)=NN(c2ccc(OCC3CN(c4ccc5c(c4)OCO5)C3)cc2)[C@H]1CC(=O)O` [Example B34, 2-((4S,5S)-1-(4-((1-(benzo[d] [1,3]dioxol-5-yl)azetidin-3-yl)methoxy)phenyl)-4-methyl-3-(trifluoromethyl)-4,5-dihydro-1H-pyrazol-5-yl)acetic acid], for which the EC50 was 4.76 µM.

For `COc1ccc(F)c(N2CC(COc3ccc(N4N=C(C(F)(F)F)[C@@H](C)[C@@H]4CC(=O)O)cc3)C2)c1` [Example B35, 2-((4S,5S)-1-(4-((1-(2-fluoro-5-methoxyphenyl)azetidin-3-yl)methoxy)phenyl)-4-methyl-3-(trifluoromethyl)-4,5-dihydro-1H-pyrazol-5-yl)acetic acid], the EC50 was determined as 4.76 µM. Regarding `C[C@@H]1C(C(F)(F)F)=NN(c2ccc(OC3CCN(S(=O)(=O)c4ccccc4C#N)CC3)cc2)[C@H]1CC(=O)O` [Example B21], the EC50 turned out to be 7.95 µM.

Regarding `C[C@@H]1C(C(F)(F)F)=NN(c2ccc(OC3CCN(c4cnc(Cl)cn4)CC3)cc2)[C@H]1CC(=O)O` [Example 55, 2-((4S,5S)-1-(4-((1-(5-chloropyrazin-2-yl)piperidin-4-yl)oxy)phenyl)-4-methyl-3-(trifluoromethyl)-4,5-dihydro-1H-pyrazol-5-yl)acetic acid], the EC50 was found to be 6.25 µM. For `C[C@@H]1C(C(F)(F)F)=NN(c2ccc(OC3CCN(S(=O)(=O)c4ccccc4C(F)(F)F)CC3)cc2)[C@H]1CC(=O)O` [Example B25, 2-((4S,5S)-4-Methyl-3-(trifluoromethyl)-1-(4-((1-((2-(trifluoromethyl)phenyl)sulfonyl)piperidin-4-yl)oxy)phenyl)-4,5-dihydro-1H-pyrazol-5-yl)acetic acid], the EC50 turned out to be 4.42 µM. As to `C[C@@H]1C(C(F)(F)F)=NN(c2ccc(OC3CCN(C(=O)OCc4ccccc4)CC3)cc2)[C@H]1CC(=O)O` [Example 14, 2-((4S,5S)-1-(4-((1-((benzyloxy)carbonyl)piperidin-4-yl)oxy)phenyl)-4-methyl-3-(trifluoromethyl)-4,5-dihydro-1H-pyrazol-5-yl)acetic acid], the EC50 came to 4.27 µM. The figure for `C[C@@H]1C(C(F)(F)F)=NN(c2ccc(OC3CCN(c4cc5c(cc4Cl)OCO5)CC3)cc2)[C@H]1CC(=O)O` [Example B14, 2-((4S,5S)-1-(4-((1-(6-Chlorobenzo[d] [1,3]dioxol-5-yl)piperidin-4-yl)oxy)phenyl)-4-methyl-3-(trifluoromethyl)-4,5-dihydro-1H-pyrazol-5-yl)acetic acid] is 0.569 µM.

Take `C[C@@H]1C(C(F)(F)F)=NN(c2ccc(OC3CCN(c4nccs4)CC3)cc2)[C@H]1CC(=O)O` [Example 13, 2-((4S,5S)-4-methyl-1-(4-((1-(thiazol-2-yl)piperidin-4-yl)oxy)phenyl)-3-(trifluoromethyl)-4,5-dihydro-1H-pyrazol-5-yl)acetic acid]: the EC50 stood at 1.69 µM. As for `CCOc1ccc(F)c(N2CCC(Oc3ccc(N4N=C(C#N)C(C)C4CC(=O)O)cc3)C(C)C2)c1` (single isomer, unassigned) [Example B7, Isomer 2, 2-(3-Cyano-1-(4-((1-(5-ethoxy-2-fluorophenyl)-3-methylpiperidin-4-yl)oxy)phenyl)-4-methyl-4,5-dihydro-1H-pyrazol-5-yl)acetic acid], the EC50 was found to be 5.79 µM.

These data come from patent US9604964B2, “Dihydropyrazole GPR40 modulators” (BRISTOL-MYERS SQUIBB COMPANY, priority 2012, dated 2017).
